According to patent US9676997B2, “Compositions and methods for stabilizing luminogenic substrates” (Promega Corporation, priority 2014, dated 2017):

Assay: Stability of 1.25 mM coelenterazine-h-h in 50% ethanol and 50% propylene glycol with or without 225 mM ATT, HPLC and Arrhenius plots
Type: physicochemical
Conditions: 225 mM ATT, over time at different temperatures
Protocol: The stability of coelenterazine-h-h in the presence and absence of ATT was measured over time at different temperatures. Specifically, 1.25 mM coelenterazine-h-h was present in a solution of 50% ethanol and 50% propylene glycol (i.e., the solution without ATT) or a solution of 50% ethanol and 50% propylene glycol with 225 mM ATT (i.e., the solution with ATT). These two solutions were incubated at −20° C., room temperature (RT), 40° C., or 60° C. and analyzed at 0 days, 1 day, 3 days, 7 days, 15 days, and 30 days.
Following incubation, high performance liquid chromatography (HPLC) was utilized to identify the components of the respective solutions at each time point. Specifically, an Agilent 1100 HPLC instrument was used and equipped with a quaternary pump, thermostatted autosampler and column compartment, and a G1311B diode-array detector. The column used was a Synergi-MAX-RP (Phenomenex, Torrance, Calif.) 100 AÅ 50×4.6 2.5 μm. The run on the HPLC was a gradient run with 0.1% TFA in water and acetonitrile. Absorbance was measured at 262 nanometers (nm). Standards of coelenterazine-h-h and its known degradants were run to confirm both the retention time and absorbance trace. 5 μl of each solution was injected and the retention time of coelenterazine-h-h at room temperature was 5.5 minutes.
The results of the HPLC analysis are shown below in Tables 7 and 8 and FIGS. 3A and 3B, in which the values are reported as relative peak area percentage at 262 nm (i.e., the lamba max of the substrate). […] In each of FIGS. 3A and 3B, diamond is 1.25 mM coelenterazine-h-h incubated over time with or without 225 mM ATT, respectively, at −20° C., triangle is 1.25 mM coelenterazine-h-h incubated over time with or without 225 mM ATT, respectively, at room temperature (RT), star is 1.25 mM coelenterazine-h-h incubated over time with or without 225 mM ATT, respectively, at 40° C., and cross is 1.25 mM coelenterazine-h-h incubated over time with or without 225 mM ATT, respectively, at 60° C.
From the HPLC analysis, the half-life of coelenterazine-h-h in the presence of ATT at 60° C. was calculated to be 10 days while the half-life of coelenterazine-h-h in the absence of ATT at 40° C. and 60° C. was calculated to be 27 days and 8 days, respectively (see Table 9 below).
Additionally, Arrhenius plots were generated for coelenterazine-h-h in the presence and absence of ATT to calculate the half-life of coelenterazine-h-h at various temperatures. The Arrhenius equation is as follows: […]
In FIG. 11, the slope was −10740.9, the intercept was 30.0575, and R^2 was 0.9967.
In FIG. 12, the […], and R^2 was 0.9648.

Cc1n[nH]c(=S)[nH]c1=O [ATT, 6-methyl-3-thioxo-3,4-dihydro-1,2,4-triazin-5(2H)-one]
stabilization of coelenterazine-h-h against decomposition: stabilized coelenterazine-h-h against decomposition over time at different temperatures
